Patent publication US8278072B1, “Method for synthesis of sialylated products using reversible sialylation” (Health Research, Inc., priority 2007, dated 2012)

Experiments:
Format in all cases: biochemical
ST3Gal-II [1] = target: T1, ST3Gal-II (Rattus norvegicus, UniProt Q11205); assay: CMP-NeuAc / UMP-NeuAc formed by reverse sialylation as sialyl donor, ST3Gal-II activity; details: acceptor 2.5 mM D-Fucβ1,3GalNAcα-O-Bn; donor [3] 0.0625 mM, 8 mM 5′-CMP or 5′-UMP, 4 h, blank subtracted
T1 construct: purchased Calbiochem
T1 sequence (Q11205 1-350): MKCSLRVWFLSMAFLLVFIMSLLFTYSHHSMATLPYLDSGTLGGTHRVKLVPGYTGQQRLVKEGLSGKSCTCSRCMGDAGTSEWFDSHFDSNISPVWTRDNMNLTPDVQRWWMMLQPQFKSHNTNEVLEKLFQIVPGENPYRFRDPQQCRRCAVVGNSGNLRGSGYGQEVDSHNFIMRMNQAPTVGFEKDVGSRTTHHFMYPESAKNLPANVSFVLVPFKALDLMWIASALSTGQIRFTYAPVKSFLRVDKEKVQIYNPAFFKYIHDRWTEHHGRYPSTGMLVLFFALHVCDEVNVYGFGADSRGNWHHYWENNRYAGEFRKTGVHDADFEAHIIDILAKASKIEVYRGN

ST3Gal-III = target: T2, ST3Gal-III (Rattus norvegicus, UniProt Q02734); assay: CMP-NeuAc / UMP-NeuAc formed by reverse sialylation as sialyl donor, ST3Gal-III activity; details: acceptor 2.5 mM 4-O-MeGalβ1,4GlcNAcβ-O-Bn; donor [3] 0.0625 mM, 8 mM 5′-CMP or 5′-UMP, ST3Gal-II plus ST3Gal-III, 4 h
T2 construct: purchased Calbiochem
T2 sequence (Q02734 1-374): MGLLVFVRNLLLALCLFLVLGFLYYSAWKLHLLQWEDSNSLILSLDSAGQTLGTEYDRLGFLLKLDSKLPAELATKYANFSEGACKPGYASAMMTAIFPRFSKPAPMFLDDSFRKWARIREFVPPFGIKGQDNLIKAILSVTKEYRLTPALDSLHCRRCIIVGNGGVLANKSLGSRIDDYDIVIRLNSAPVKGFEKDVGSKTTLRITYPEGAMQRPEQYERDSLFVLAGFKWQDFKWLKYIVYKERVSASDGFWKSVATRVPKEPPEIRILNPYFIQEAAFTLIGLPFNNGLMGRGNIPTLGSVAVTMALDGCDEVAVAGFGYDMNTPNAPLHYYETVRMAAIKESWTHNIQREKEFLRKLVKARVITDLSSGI

ST6Gal-I = target: T3, ST6Gal-I (Rattus norvegicus, UniProt P13721); assay: CMP-NeuAc / UMP-NeuAc formed by reverse sialylation as sialyl donor, ST6Gal-I activity; details: acceptor 2.5 mM Galβ1,4GlcNAcβ-O-Bn; donor [3] 0.0625 mM, 8 mM 5′-CMP or 5′-UMP, ST3Gal-II plus ST6GalI, 4 h
T3 construct: purchased Calbiochem
T3 sequence (P13721 1-403): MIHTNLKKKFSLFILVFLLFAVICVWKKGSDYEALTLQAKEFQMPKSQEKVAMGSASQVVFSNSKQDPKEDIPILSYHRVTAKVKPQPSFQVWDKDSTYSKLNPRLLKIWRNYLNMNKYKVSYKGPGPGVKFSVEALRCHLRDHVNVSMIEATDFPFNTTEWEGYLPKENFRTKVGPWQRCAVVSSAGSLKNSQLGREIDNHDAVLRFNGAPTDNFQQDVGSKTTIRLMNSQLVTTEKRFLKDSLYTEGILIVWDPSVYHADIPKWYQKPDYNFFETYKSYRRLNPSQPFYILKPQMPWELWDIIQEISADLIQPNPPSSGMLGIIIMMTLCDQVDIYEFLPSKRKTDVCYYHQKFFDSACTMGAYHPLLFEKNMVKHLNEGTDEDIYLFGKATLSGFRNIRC

ST3Gal-II [2] = target: T1, ST3Gal-II; assay: Serial transfer of sialic acid from donor via 5′-CMP to acceptors (scheme-II); details: 0.15 mM donor; 2 mM 5′-CMP with core-2 donors
Experimental: FIG. 3. Serial transfer of sialic acid using scheme-II was followed at increasing concentrations of acceptor D-Fucβ1,3GalNAcα-O-Bn. The donor used was either: i) 0.15 mM [9-^3H]CMP-NeuAc; or, ii) 0.15 mM [9-^3H]NeuAcα2,3Galβ1,3(4-FGlcNAcβ1,6)GalNAcα-O-Bn [9-^3H [2]] in the presence of 2.0 mM 5′-CMP, or iii) [9-^3H]NeuAcα2,3Galβ1,3(6-O-SulfoGlcNAcβ1,6)GalNAcα-O—Al [[9-^3H] [4]] in the presence of 2.0 mM 5′-CMP. In runs where [9-^3H [2]] was donor since both and [2] bind C18 cartridges, control runs were performed in the absence of D-Fucβ1,3GalNAcα-O-Bn to estimate the amount of [9-^3H]CMP-NeuAc formed under the experimental conditions. 80-85% of the radioactivity was transferred to CMP-NeuAc in these runs. The amount of CMP-NeuAc remaining in runs with was then subtracted from CMP-NeuAc radioactivity in the control run to determine the amount of sialylated. To complement this run, studies were also performed with [[9-^3H] […] In these runs, the amount of sialylated was determined by measuring radioactivity retained in the C18-cartridge. a. Equilibrium constant was 5.55 when CMP-[9-^3H]NeuAc was donor. b. ˜10-fold lower acceptor concentration was required for similar extents of reaction when CMP-[9-^3H]NeuAc was donor, compared to core-2 based donors and [4].
We tested the possibility that CMP-NeuAc formed above may be available for transfer to other acceptors using ST3Gal-II (scheme-II, FIG. 3). For this, three radiolabeled donors were prepared using methods described above: two were based on the mucin Core-2 structure ([[9-^3H] [1]] and [9-^3H]NeuAcα2,3Galβ1,3(6-O-SulfoGlcNAcβ1,6)GalNAcα-O—Al [[9-^3H] [4]]) while the third was based on the Globo glycolipid ([9-^3H] [3]). The transfer of [9-^3H]NeuAc from these sialylated donors to various T-hapten (Galβ1,3GalNAcα) and mucin core2-based glycoside acceptors in the presence of 5′-CMP and ST3Gal-II was assessed (Table III). All three […] of ST3Gal-II ([1], [3] and [4]) allowed formation of CMP-[9-^3H]NeuAc, and a diverse array of products.
The transfer of [9-^3H]NeuAc from [[9-^3H][1]] to D-Fucβ1,3GalNAcα-O-Bn in the presence of 5′-CMP and ST3Gal-II increased linearly in the first two hours and it reached saturation at 4 hours (FIG. 12), and thus the data in Table III (4 hours time point) represent equilibrium conditions. […] Further, diverse sialylated products can be formed using the same synthetic sialylated donor.
In order to compare the efficiency of individual reactions of scheme II, independent runs were performed where either 0.15 mM [9-^3H]CMP-NeuAc, 0.15 mM [9-^3H] [2] or 0.15 mM [9-^3H] [4] was the donor, and [5] was the acceptor (FIG. 3). 2 mM 5′-CMP was added in runs with core-2 donors and [4], and thus reverse sialylation of these molecules was feasible. Keq for transfer of sialic acid from CMP-NeuAc to [5] was 5.55 (FIG. 3a). […] (˜6 mM) or [9-^3H[4]] (˜6 mM). Thus, while the two-step mechanism results in lower conversion than CMP-NeuAc alone, the transfer of NeuAc still takes place at an appreciable rate.

With `CC(=O)N[C@H]1[C@H]([C@H](O)[C@H](O)CO)O[C@](OP(=O)(O)OC[C@H]2O[C@@H](n3ccc(N)nc3=O)[C@H](O)[C@@H]2O)(C(=O)O)C[C@@H]1O` [CMP-NeuAc, reference compound] the “Incorporation of [9-3H]NeuAc into the acceptor, ST3Gal-II activity” value (ST3Gal-II [1]) was 134122 CPM, the “Incorporation of [9-3H]NeuAc into the acceptor, ST3Gal-III activity” value (ST3Gal-III) was 59531 CPM and the “Incorporation of [9-3H]NeuAc into the acceptor, ST6Gal-I activity” value (ST6Gal-I) was 15066 CPM. The “amount of acceptor [5] required for comparable transfer” value (ST3Gal-II [2]) was 0.6 mM.
